Assay results taken from article PMC10779433, “Bidirectional Allosteric Coupling between PIP2 Binding and the Pore of the Oncochannel TRPV6” (International Journal of Molecular Sciences, 2024).
Residues, ends and D or L forms follow the SMILES beside them. *: point of attachment. Palmitoyl = CCCCCCCCCCCCCCCC(=O)*

Columns and labels:
TRPV6 D580K [1] = system: TRPV6 D580K; design: method as in PMID 33246965; details: HEK293 cells; 0.1 μM and 10 μM cis-22a; Figure 5B; ref [47]; cited from earlier work
TRPV6 G488R [2] = assay: NFAT screen, TRPV6 G488R; assay type: cell-based, human; details: HEK293 cells; 5 μM cis-22a, 2 h, vs DMSO
Method: (§1) N-terminally TagRFP-labeled human TRPV6 (725 aa) was kindly provided by R. Bhardwaj and M. Hediger (University of Bern, Bern, Switzerland). This variant is translated from the first ATG codon and thus deviates from the non-ATG-initiated protein which is expressed in vivo (accession number NM_018646.6) by lacking 40 amino acids of the very N-terminus. For N-terminal labeling with EYFP, TRPV6 was cloned into pEYFP-C1 (Clontech) via EcoRI and SacII restriction sites. […]
(§2) After incubation, cover slips were carefully rinsed with phenol red-free DMEM supplemented with the compound and dosage corresponding to the previous incubation, which was then also present during imaging. […] Subcellular NFAT localization of TRPV6 expressing cells was again monitored on an Axiovert 135 inverted microscope (Zeiss, Oberkochen, Germany), as described in more detail before. […] Images were analyzed using Matlab2018a, differentiating between three cell populations based on the ratio of CFP emission intensity originating from the nucleus and the cytosol, similar to Schober et al. (2019).

TRPV6 G488R [3] = details: ref [62]; cited from earlier work
Excerpt: As mentioned before, the G488R mutation resides within the segment linking the fourth and fifth transmembrane domain of TRPV6. Importantly, different examples exist throughout the entire TRP superfamily, highlighting the importance of the corresponding protein section for a proper channel function, for instance, by serving as a binding site for different agonists or antagonists.

TRPV6 W583F = assay: NFAT screen, TRPV6 W583F; assay type: cell-based, human; details: HEK293 cells; 5 μM cis-22a, 2 h, vs DMSO
Method: as §1, §2

TRPV6 D580A = assay: NFAT screen, TRPV6 D580A; assay type: cell-based, human; details: HEK293 cells; 5 μM cis-22a, 2 h, vs DMSO
Method: as §1, §2

TRPV6 G579A = assay: NFAT screen, TRPV6 G579A; assay type: cell-based, human; details: HEK293 cells; 5 μM cis-22a, 2 h; homogeneous localization preferred already without cis-22a
Method: as §1, §2

TRPV6 R470A [4] = assay: NFAT screen, TRPV6 R470A; assay type: cell-based, human; details: HEK293 cells; 5 μM cis-22a, 2 h, vs DMSO
Method: as §1, §2

TRPV6 D580K [5] = assay: Whole-cell patch clamp, TRPV6 D580K; assay type: cell-based, human; details: HEK293 cells, 10 μM pal-PIP2 peptide, Figure 5C (substitution reduces the inhibition)
Excerpt: (§3) N-terminally TagRFP-labeled human TRPV6 (725 aa) was kindly provided by R. Bhardwaj and M. Hediger (University of Bern, Bern, Switzerland). This variant is translated from the first ATG codon and thus deviates from the non-ATG-initiated protein which is expressed in vivo (accession number NM_018646.6) by lacking 40 amino acids of the very N-terminus. For N-terminal labeling with EYFP, TRPV6 was cloned into pEYFP-C1 (Clontech) via EcoRI and SacII restriction sites. Mutations (F468A, R470A, F472A, K484A/Q, G488R, R492A/Q, I575A, G579A, D580A/K, H582A, W583A/F, H587A, R589A, W593A, R632A/Q, R470A, W583F) were introduced using the QuickChange XL site-directed mutagenesis kit (Stratagene, San Diego, CA, USA) and Pfu DNA Polymerase (Promega, Madison, WI, USA). pTagRFP-hTRPV6 I575A was kindly provided by the lab of M. Hediger (University of Bern, Bern, Switzerland). Forward and reverse primers for site-directed mutagenesis were synthesized by Eurofins genomics GmbH (Wien, Vienna, Austria). Intactness of the constructs in terms of sequence was confirmed by sequencing (Microsynth Austria GmbH, Wien, Vienna, Austria; Eurofins genomics GmbH, Wien, Vienna, Austria). […]
(§4) Electrophysiological experiments were performed at 20 °C to 24 °C in whole-cell recording configurations of the patch clamp technique. […] The liquid junction potential was determined as 12 mV; the voltages were not adjusted. […]

TRPV6 I575A = assay: Whole-cell patch clamp, TRPV6 I575A; assay type: cell-based, human; details: HEK293 cells, 10 μM pal-PIP2 peptide, Figure 5C (substitution reduces the inhibition)
Excerpt: as §3, §4

TRPV6 R470A [6] = assay: Whole-cell patch clamp, TRPV6 R470A; assay type: cell-based, human; details: HEK293 cells; 10 μM pal-PIP2 peptide; p < 0.05; Figure 4D
Excerpt: as §3, §4

## Cc1cccc(C2CCC(N3CCN(c4cccnc4)CC3)CC2)c1.O=C(O)C(F)(F)F (stereo not drawn) [cis-22a]
TRPV6 D580K [1]
  response to cis-22a vs TRPV6 WT: significantly reduced response
TRPV6 G488R [2]
  reduction of nuclear NFAT localization: impeded cis-22a-based reductions in nuclear NFAT localization
TRPV6 G488R [3]
  sensitivity to cis-22a (in words): largely insensitive
TRPV6 W583F
  change of nuclear NFAT localization: not significantly changed
TRPV6 D580A
  change of nuclear NFAT localization: not significantly changed
TRPV6 G579A
  change of nuclear NFAT localization: further significant reduction in the proportion of cells showing nucleus-resident NFAT
TRPV6 R470A [4]
  reduction of nuclear NFAT localization: failed to significantly reduce NFAT nuclear localization

## CCCCCCCCCCCCCCCC(=O)N[C@@H](Cc1c[nH]cn1)C(=O)N[C@@H](CCCNC(=N)N)C(=O)N[C@@H](CCC(N)=O)C(=O)N[C@@H](CCCCN)C(=O)N[C@@H](Cc1c[nH]cn1)C(=O)N[C@@H](Cc1ccccc1)C(=O)N[C@@H](CCC(=O)O)C(=O)N[C@@H](CCCCN)C(=O)N[C@@H](CCCNC(=N)N)C(=O)N[C@@H](CCCNC(=N)N)C(N)=O [pal-PIP2 peptide] (Palmitoyl-HRQKHFEKRR-NH2)
TRPV6 D580K [5]
  inhibitory effect of pal-PIP2 peptide vs WT: interfered with the inhibitory effect of the pal-PIP2 peptide
TRPV6 I575A
  inhibitory effect of pal-PIP2 peptide vs WT: interfered with the inhibitory effect of the pal-PIP2 peptide
TRPV6 R470A [6]
  sensitivity to peptide-based PIP2 sequestration vs WT: significantly reduced sensitivity
